# Source: patent US7030267B2, “Cycloproply β-amino acid derivatives” (Warner-Lambert Company, LLC, priority 2003, dated 2006)
row,Structure (SMILES),melting point
1,CC1(C)CC1(CN)C(=O)O (stereo not shown),254 to 256 °C
2,CCC(CC)C1CC1(CN)C(=O)O (stereo not shown),255 to 257 °C
3,NCC1(C(=O)O)CC1C1CCCCC1 (stereo not shown),270 °C (dec.)
4,NCC1(C(=O)O)CC12CCCC2 (stereo not shown),231 to 235 °C (dec.)
5,CC(C)C1CC1(CN)C(=O)O.Cl (stereo not shown),245 to 246 °C
6,CCCC1(CCC)CC1(CN)C(=O)O (stereo not shown),255 to 257 °C
7,"Cl.NCC1(C(=O)O)CC12CCCCC2 (stereo not shown) [Example 1, 1-AMINOMETHYL-SPIRO[2.5]OCTANE-1-CARBOXYLIC ACID HYDROCHLORIDE]",> 250 °C (dec.)
8,"CC(C)CC1CC1(CN)C(=O)O.Cl (stereo not shown) [Example 6, 1-AMINOMETHYL-2-ISOBUTYL-CYCLOPROPANECARBOXYLIC ACID HYDROCHLORIDE]",> 220 °C (dec.)
9,Cl.NCC1(C(=O)O)CC12CCCCC2 (stereo not shown) [Example 14],240 to 242 °C
10,CC(C)CC1CC1(CN)C(=O)O.Cl (stereo not shown) [Example 15],254 to 255 °C
